Measured values reported in ChEMBL document CHEMBL1201862, “PubChem BioAssay data set” (2004).
The source made the active and inactive calls. For most assays here, no stated cut-off is given here; in the data, actives have a measured EC50 and inactives only a lower limit.

Assays:
[1] = THP-1 cell cytotoxicity, cytotoxicity control, set 4 (AID 504911); format: functional; conditions: Mycobacterium tuberculosis
H9c2 = experiment: cells; format: functional, cell-based; conditions: Rattus norvegicus, H9c2, Myocardium
[2] = CRF-BP/CRF-R2 complex antagonists, dose response, cell-based, uHTS hits, 384-well (AID 651639); format: functional, Homo sapiens; conditions: read-out: IC50_Mean
[3] = cytotoxicity toward DRD oncogenic fibroblasts, dose response, cell-based, non-viral oncogenic, luminescence (AID 1934); format: functional; conditions: Homo sapiens
Vero = experiment: cells; format: functional; conditions: Chlorocebus sabaeus
[4] = C. albicans growth with fluconazole, confirmation, fluorescence, retest (AID 2467); format: functional, cell-based
Streptokinase A = target: T1, Streptokinase A (Streptococcus pyogenes serotype M1, UniProt P10520); experiment: S. pyogenes streptokinase expression inhibitors, potency, dose response, plasminogen activation absorbance, OD405 (AID 1914); format: functional, Streptococcus pyogenes M1 GAS;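 further: secreted streptokinase activity via plasminogen activation per viability signal from cell pellet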
T1 sequence (P10520 whole entry): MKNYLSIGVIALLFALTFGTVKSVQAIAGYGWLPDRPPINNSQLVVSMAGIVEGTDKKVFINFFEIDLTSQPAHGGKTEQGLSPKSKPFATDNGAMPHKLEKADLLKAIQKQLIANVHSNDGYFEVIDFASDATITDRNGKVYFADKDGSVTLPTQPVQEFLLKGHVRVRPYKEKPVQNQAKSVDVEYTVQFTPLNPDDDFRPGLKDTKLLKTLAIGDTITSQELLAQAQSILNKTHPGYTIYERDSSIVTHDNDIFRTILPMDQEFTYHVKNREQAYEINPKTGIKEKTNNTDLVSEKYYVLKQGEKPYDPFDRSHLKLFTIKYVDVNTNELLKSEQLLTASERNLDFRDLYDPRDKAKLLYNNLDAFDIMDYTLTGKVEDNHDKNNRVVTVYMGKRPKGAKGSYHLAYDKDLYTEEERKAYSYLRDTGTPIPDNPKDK

[5] = target: T2, Zinc finger protein mex-5 (Caenorhabditis elegans, UniProt Q9XUB2); experiment: MEX-5/TCR-2 RNA interaction inhibitors, dose response, biochemical, C. elegans, fluorescence polarization (AID 1960)
T2 sequence (Q9XUB2 whole entry): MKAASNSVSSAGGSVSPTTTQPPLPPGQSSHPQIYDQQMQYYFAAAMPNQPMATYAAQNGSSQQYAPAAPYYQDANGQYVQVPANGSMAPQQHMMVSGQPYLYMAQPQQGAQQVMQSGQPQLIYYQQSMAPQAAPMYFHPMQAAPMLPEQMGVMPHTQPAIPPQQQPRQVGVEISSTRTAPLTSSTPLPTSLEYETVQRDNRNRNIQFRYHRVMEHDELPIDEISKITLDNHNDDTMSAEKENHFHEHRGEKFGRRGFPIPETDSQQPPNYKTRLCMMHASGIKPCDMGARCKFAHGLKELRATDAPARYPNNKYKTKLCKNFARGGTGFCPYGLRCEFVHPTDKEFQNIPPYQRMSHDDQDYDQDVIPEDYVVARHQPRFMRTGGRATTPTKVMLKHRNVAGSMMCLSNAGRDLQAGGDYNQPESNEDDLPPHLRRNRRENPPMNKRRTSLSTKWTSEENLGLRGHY

[6] = target: T3, RNA-binding protein pos-1 (Caenorhabditis elegans, UniProt G5EF15); experiment: inhibitors of POS-1/mex-3 RNA binding, dose response, biochemical, fluorescence polarization (AID 1964);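 further: purified POS-1 fused to maltose binding protein made in E. coli; potency of compounds blocking POS-1 binding to fluorescent RNA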
T3 sequence (G5EF15 whole entry): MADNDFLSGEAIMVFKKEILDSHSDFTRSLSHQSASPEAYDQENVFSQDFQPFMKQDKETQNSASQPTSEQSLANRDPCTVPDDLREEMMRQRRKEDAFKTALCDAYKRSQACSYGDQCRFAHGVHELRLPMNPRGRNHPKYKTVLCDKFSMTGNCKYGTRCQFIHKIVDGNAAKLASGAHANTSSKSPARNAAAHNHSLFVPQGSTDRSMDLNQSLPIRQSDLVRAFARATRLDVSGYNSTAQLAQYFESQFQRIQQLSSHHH

[7] = NIH-3T3 fibroblast cytotoxicity, dose response, cytotoxicity control, cell-based, fluorescence, Alamar Blue, secondary assay (AID 2327); format: functional;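 further: NIH-3T3 mouse fibroblasts cultured with fluconazole at 8 µg/mL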
BJ [8] = experiment: cytotoxicity toward Ras-transformed BJeLR fibroblasts, dose response, cell-based, alamar blue fluorescence, cherrypicked samples (AID 2631); format: functional; conditions: Homo sapiens;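 further: confirmatory dose-response assay in RAS-dependent BJ fibroblasts engineered with TERT, LT and ST, with cytotoxicity read by fluorescence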
[9] = target: Photoreceptor-specific nuclear receptor (Homo sapiens, UniProt Q9Y5X4); format: functional, cell-based;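 further: CHO-S cells with Gal4-NCOR and VP16-NR2E3 two-hybrid luciferase reporter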
Photoreceptor-specific nuclear receptor, sequence (Q9Y5X4 whole entry, the tested form may be a part): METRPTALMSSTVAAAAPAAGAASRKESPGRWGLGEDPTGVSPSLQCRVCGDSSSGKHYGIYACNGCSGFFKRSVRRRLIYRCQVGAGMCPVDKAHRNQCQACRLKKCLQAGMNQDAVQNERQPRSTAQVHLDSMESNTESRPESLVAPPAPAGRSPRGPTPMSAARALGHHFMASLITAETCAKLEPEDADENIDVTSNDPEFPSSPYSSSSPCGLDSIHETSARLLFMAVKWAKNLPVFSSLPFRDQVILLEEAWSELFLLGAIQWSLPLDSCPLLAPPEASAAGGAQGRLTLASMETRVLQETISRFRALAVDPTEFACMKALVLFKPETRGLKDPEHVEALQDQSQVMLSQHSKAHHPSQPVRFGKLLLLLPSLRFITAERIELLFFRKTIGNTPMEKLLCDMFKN

Streptococcus = experiment: Group A Streptococcus viability loss, dose response, counter-screen for streptokinase expression inhibitor project, luminescence, BacTiterGlo (AID 1915); format: functional, organism-based;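 further: potency for reduction of bacterial viability or growth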
[10] = test system: Streptococcus sp. 'group A'; experiment: growth inhibition of control SK(-) GAS strain, dose response, counter-screen for streptokinase expression inhibitor project, luminescence, kanamycin, BacTiterGlo, confirmation (AID 1900); format: functional, organism-based
BJ [11] = experiment: cytotoxicity toward BJ-TERT-LT-ST fibroblasts, dose response, cell-based, RAS-independent, luminescence (AID 1935); format: functional; conditions: Homo sapiens;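 further: BJ fibroblasts immortalized with TERT plus LT and ST oncogenes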
BJ [12] = experiment: cells; format: functional, cell-based; conditions: Homo sapiens
BJ [13] = experiment: cytotoxicity toward BJ-TERT fibroblasts, dose response, cell-based, RAS-independent, luminescence (AID 1933); format: functional; conditions: Homo sapiens

## O=C(CSc1nc(O)c2ccccc2n1)N1CCOCC1
[1]
  CC50: > 100 µM (active)
H9c2
  IC50: 25.9 µM (active)

## CN(C(=O)COC(=O)CCc1nc(O)c2ccccc2n1)C1CCS(=O)(=O)C1 (configuration not stated)
[2]
  IC50: > 20 µM (inactive)

## O=C(/C=C/c1ccc([N+](=O)[O-])o1)NNC(=O)c1ccc(F)cc1
[3]
  EC50: 7.26 µM (active)
Vero
  CC50: 14.5 µM (active)
[4]
  EC50: 1.24 µM (active)
Streptokinase A
  EC50: 13.9 µM (active)
[5]
  EC50: 24.8 µM (active)
[6]
  EC50: > 300 µM (not active)
[7]
  EC50: 4.1 µM (inconclusive)
BJ [8]
  EC50: 2.93 µM (active)
[9]
  IC50: 1.8 µM (active)
Streptococcus
  EC50: 10.3 µM (active)
[10]
  EC50: 2.58 µM (active)
BJ [11]
  EC50: > 150 µM (inconclusive)
BJ [12]
  EC50: 4.1 µM (inconclusive)
BJ [13]
  EC50: 7.04 µM (inconclusive)
